Data on one molecule can be found in patent publication US20240100027A1, “INHIBITION OF PROSTAGLANDIN DEGRADING ENZYME 15-PGDH TO IMPROVE JOINT STRUCTURE AND FUNCTION” (The Board of Trustees of the Leland Stanford Junior …, priority 2020, published 2024).

The subject of one test is PGE2 levels. Conditions: in vivo, bone marrow, colon, lung and liver, cited from earlier work.
For test [1], the system named is human OA cartilage explants. The test is described as follows: Human OA cartilage explants: Ki67 immunostaining. Format: cell-based. The text has this:
Human cartilage tissue collection and treatment. Human cartilage samples were harvested from the surgical knee tissue discards of patients (n>5, age ranging from 55-75 years) undergoing total knee arthroplasty according to approved human subjects institutional review board protocols at Stanford University. Informed, written consent was given by the patients prior to the study. Cylindrical explants (4 mm diameter, 2-4 mm thickness) were extracted from the cartilage samples using standard biopsy punches (Integra, NJ. USA). Cartilage explants were cultured in DMEM-F12 medium supplemented with 10% fetal bovine serum (FBS), 25 μg mL^−1 ascorbic acid, 1× glutamine, and 1× antibiotic-antimycotic solution prior to experiments. To assess the effect of 15-PGDH inhibition, explants were treated with Vehicle (DMSO) or SW (10 uM) for 1 week prior to the assessment. Fresh media was added to the explants every other day.
Cell cycle marker-Ki67 immunostaining. Human OA explants treated with vehicle and SW were fixed and embedded in OCT as described in previous section, 10 μm sections on poly-1-lysine-coated glass slides were obtained using a cryostat. Immunostaining was performed using a standard protocol. […]
Next, the effects of 15-PGDH inhibition in human OA cartilage were tested. […] Sulphated glycosaminoglycans (sGAG) were also independently quantified through measurements with the DMMB dye. […]

The structures appear in SMILES notation.

With `CCCC[S+]([O-])c1sc2nc(-c3cccs3)cc(-c3ccccc3)c2c1N` (stereo not shown) [SW033291, 2-(butylsulfinyl)-4-phenyl-6-(thiophen-2-yl)thieno[2,3-b]pyridin-3-amine], in the test on PGE2 levels, the “increase of PGE2 levels” value was 2 fold. For the same molecule, the “increase of PGD2 levels” value in the test with PGE2 levels (compared with PGE2 increase) is “to a lesser extent”. The Ki67 intensity distribution entry in test [1] (SW vs vehicle treated cells) is reported as “increased Ki67 expression”. For the same molecule, in test [1] (SW vs vehicle treated explants), the Ki67 positive cells entry was “increase in Ki67 positive cells”.
